# Article PMC7756412 (2020)
# Columns and labels:
# [1] = system: Myc-dup3 (DNA, G4) TGAGGGTGGGTAGGGTGGGCTAGTCATTTTGACTAG; experiment: ITC, two-site fit; settings: 120 mM K+; 100 mM KCl, 20 mM potassium phosphate pH 7.0, 5% DMSO, 40 °C; high-affinity site
# [2] = system: Myc-dup5 (DNA, G4) GATCAGTTTTACTGATCGGGTGGGTAGGGTGGGTA; experiment: NMR titration, chemical shift perturbation; settings: K+ (10 mM potassium phosphate); pH 7.0, 20 °C; 5' quadruplex-duplex junction; ITC isotherm not reliably fitted (Ka n.d.)
# [3] = system: Myc-dup3 (DNA, G4) TGAGGGTGGGTAGGGTGGGCTAGTCATTTTGACTAG; experiment: UV melting, 260 nm; settings: 120 mM Na+; 100 mM NaCl, 20 mM sodium phosphate pH 7; 1 equiv PIQ; duplex domain; derived from two Tm (63.6, 70.8)
# [4] = system: Myc-dup3 (DNA, G4) TGAGGGTGGGTAGGGTGGGCTAGTCATTTTGACTAG; experiment: CD melting, 265 nm; settings: 120 mM Na+; 100 mM NaCl, 20 mM sodium phosphate pH 7; 5 µM DNA, 1 equiv PIQ; quadruplex domain; 44.7 to 68.2 °C
# [5] = system: Myc3l-dup5 (DNA, G4) GATCAGTTTTACTGATCGGGTGGTGGGTGGGGAAGG; experiment: CD melting, 265 nm; settings: 120 mM Na+; 100 mM NaCl, 20 mM sodium phosphate pH 7; 1 equiv PIQ; quadruplex domain; derived from two Tm (66.3, 73.8)
# [6] = system: Myc3l-dup5 (DNA, G4) GATCAGTTTTACTGATCGGGTGGTGGGTGGGGAAGG; experiment: UV melting, 260 nm; settings: 120 mM Na+; 100 mM NaCl, 20 mM sodium phosphate pH 7; 1 equiv PIQ; duplex domain; derived from two Tm (69.5, 76.1)
# [7] = system: Myc3l-dup5 (DNA, G4) GATCAGTTTTACTGATCGGGTGGTGGGTGGGGAAGG; experiment: ITC, two-site fit; settings: 120 mM K+; 100 mM KCl, 20 mM potassium phosphate pH 7.0, 5% DMSO, 40 °C; high-affinity site
# [8] = system: Myc-dup5 (DNA, G4) GATCAGTTTTACTGATCGGGTGGGTAGGGTGGGTA; experiment: CD melting, 265 nm; settings: 120 mM Na+; 100 mM NaCl, 20 mM sodium phosphate pH 7; 5 µM DNA, 1 equiv PIQ; quadruplex domain; 53.2 to 69.7 °C
# [9] = system: Myc-dup5 (DNA, G4) GATCAGTTTTACTGATCGGGTGGGTAGGGTGGGTA; experiment: UV melting, 260 nm; settings: 120 mM Na+; 100 mM NaCl, 20 mM sodium phosphate pH 7; 1 equiv PIQ; duplex domain; derived from two Tm (67.8, 73.5)
compound,measurement,setting,value
CCN(CC)CCCNC(=O)c1ccc(-c2c3cccc(C)c3[n+](C)c3c2[nH]c2c(C)cccc23)cc1,Ka,[1],(1.6±0.4)×10^7 M^-1
same,binding,[2],yes
same,ΔTm,[3],7.2 °C
same,ΔTm,[4],23 °C
same,ΔTm,[5],7.5 °C
same,ΔTm,[6],6.6 °C
same,Ka,[7],(1.6±0.2)×10^7 M^-1
same,ΔTm,[8],17 °C
same,ΔTm,[9],5.7 °C
